Toxic doses and inconclusive results are not listed. No stated cut-off is given here; in the data, active means T/C of 150% or more; inactive means T/C below 125%.
Test system: L1210 leukemia ip in BDF1 mice, survival T/C
Assay: NCI In Vivo Anticancer Drug Screen. Data for tumor model L1210 Leukemia (intraperitoneal) in B6D2F1 (BDF1) mice
Settings: endpoint: mean survival time, higher = longer survival
In short: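 Ratio derived from survival: compound-dosed mice over vehicle-dosed mice, all bearing a transplantable tumor.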

[1] = dose: 100.0 mg/kg/injection, schedule: Q01DX001 (ip), vehicle: saline
[2] = dose: 100.0 mg/kg/injection, schedule: Q04DX003 (ip), vehicle: saline
[3] = dose: 200.0 mg/kg/injection, schedule: Q01DX001 (ip), vehicle: saline
[4] = dose: 400.0 mg/kg/injection, schedule: Q01DX001 (ip), vehicle: saline

Measured: T/C

CC1OC(O[C@H]2C[C@](O)(C(C)O)Cc3c(O)c4c(c(O)c32)C(=O)c2c(O)cccc2C4=O)CC(NC=O)C1O (stereo partly drawn)
inactive: dose: 0.05 mg/kg/injection, schedule: Q01DX009 (ip), vehicle: saline 116 % of control | dose: 0.1 mg/kg/injection, schedule: Q01DX001 (ip), vehicle: saline 105 % of control | dose: 0.1 mg/kg/injection, schedule: Q03DX003 (ip), vehicle: saline 112 % of control | dose: 0.2 mg/kg/injection, schedule: Q01DX001 (ip), vehicle: saline 116 % of control | dose: 0.2 mg/kg/injection, schedule: Q03DX003 (ip), vehicle: saline 119 % of control | dose: 0.8 mg/kg/injection, schedule: Q01DX009 (ip), vehicle: saline 119 % of control

Cc1cc2c(c(O)c1CN1CCOCC1)C1=C(CCCC1)C(C)(C)O2
inactive: dose: 100.0 mg/kg/injection, schedule: Q01DX001 (ip), vehicle: carboxymethylcellulose (CMC) 107 % of control | dose: 200.0 mg/kg/injection, schedule: Q01DX001 (ip), vehicle: carboxymethylcellulose (CMC) 91 % of control | dose: 400.0 mg/kg/injection, schedule: Q01DX001 (ip), vehicle: carboxymethylcellulose (CMC) 86 % of control

O=C(O)C(CO)NS(=O)(=O)Cc1ccccc1 (stereo not drawn)
inactive: dose: 100.0 mg/kg/injection, schedule: Q01DX001 (ip), vehicle: other 104 % of control | dose: 200.0 mg/kg/injection, schedule: Q01DX001 (ip), vehicle: other 96 % of control | dose: 400.0 mg/kg/injection, schedule: Q01DX001 (ip), vehicle: other 96 % of control

O=c1cc(-c2ccc(Cl)cc2)oc(-c2ccc(Cl)cc2)c1
inactive: dose: 50.0 mg/kg/injection, schedule: Q01DX009 (ip), vehicle: Klucel (hydroxypropylcellulose) (HPC) 94 % of control | dose: 100.0 mg/kg/injection, schedule: Q01DX009 (ip), vehicle: Klucel (hydroxypropylcellulose) (HPC) 93 % of control | dose: 100.0 mg/kg/injection, schedule: Q04DX003 (ip), vehicle: Klucel (hydroxypropylcellulose) (HPC) 89 % of control | dose: 200.0 mg/kg/injection, schedule: Q04DX003 (ip), vehicle: Klucel (hydroxypropylcellulose) (HPC) 92 % of control

COc1cccc(C2CCCCCC2OS(C)(=O)=O)c1OC (stereo not drawn)
inactive: [1] 109 % of control | [2] 102 % of control | [3] 102 % of control | dose: 200.0 mg/kg/injection, schedule: Q04DX003 (ip), vehicle: saline 109 % of control | [4] 112 % of control | dose: 400.0 mg/kg/injection, schedule: Q04DX003 (ip), vehicle: saline 102 % of control

CCOC(=O)CCC(C)=O
inactive: dose: 100.0 mg/kg/injection, schedule: Q01DX009 (ip), vehicle: saline 102 % of control | dose: 200.0 mg/kg/injection, schedule: Q01DX009 (ip), vehicle: saline 96 % of control | dose: 400.0 mg/kg/injection, schedule: Q01DX009 (ip), vehicle: saline 96 % of control

O=Nc1c(N=O)c(N=O)c(N=O)c(N=O)c1N=O
inactive: dose: 1.0 mg/kg/injection, schedule: Q01DX015 (ip), vehicle: carboxymethylcellulose (CMC) 101 % of control | dose: 2.0 mg/kg/injection, schedule: Q01DX015 (ip), vehicle: carboxymethylcellulose (CMC) 92 % of control | dose: 4.0 mg/kg/injection, schedule: Q01DX015 (ip), vehicle: carboxymethylcellulose (CMC) 102 % of control | dose: 8.0 mg/kg/injection, schedule: Q01DX015 (ip), vehicle: carboxymethylcellulose (CMC) 91 % of control | dose: 25.0 mg/kg/injection, schedule: Q04DX003 (ip), vehicle: saline 101 % of control | dose: 50.0 mg/kg/injection, schedule: Q04DX003 (ip), vehicle: saline 90 % of control | [1] 107 % of control | [2] 90 % of control | [3] 100 % of control | [4] 100 % of control

CC(=O)OC(C)C(=O)Nc1ccccc1 (stereo not drawn)
inactive: dose: 100.0 mg/kg/injection, schedule: Q01DX001 (ip), vehicle: Klucel (hydroxypropylcellulose) (HPC) 93 % of control | dose: 200.0 mg/kg/injection, schedule: Q01DX001 (ip), vehicle: Klucel (hydroxypropylcellulose) (HPC) 89 % of control | dose: 400.0 mg/kg/injection, schedule: Q01DX001 (ip), vehicle: Klucel (hydroxypropylcellulose) (HPC) 96 % of control
